The results in this text go back to PMC10584170, “Machine learning-based phenotypic imaging to characterise the targetable biology of Plasmodium falciparum male gametocytes for the development of transmission-blocking antimalarials” (PLOS Pathogens, 2023).

For one data set, the system named is HepG2 cells. The experiment in a line: HepG2 cytotoxicity counter-screen. The conditions noted are these: cytotoxic activity against HepG2 cells. On the technique in general: A counterscreen serves to expose hits that act by an unwanted route or on another target.
Data set [1] relates to P. falciparum female gametocytes. The experiment in a line: P. falciparum Dual Gamete Formation Assay (PfDGFA), female readout (Pfs25-positive female gametes). The conditions noted are these: for Selectivity ratio F: HepG2 Tox50 versus female IC50; for Average inhibition female (%) / % inhibition female (individual replicates) R1 / % inhibition female (individual replicates) R3 / % inhibition female (individual replicates) R4: 24h preincubation with gametocytes; for Average inhibition female (%): average of replicates; for % inhibition female (individual replicates) R1: replicate R1; for % inhibition female (individual replicates) R3: replicate R3; for % inhibition female (individual replicates) R4: replicate R4; for IC50: PfDGFA, 24 h incubation with gametocytes before induction, female gamete readout, read-out: Female IC50; for HitlevelF: number of replicates with >50% inhibition in the female readout. Format: cell-based, Plasmodium falciparum NF54. In a few lines: (§1)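 Day-14 NF54 gametocytes were incubated with compound for 24 h at 37°C under 1% O2/3% CO2/96% N2. Gametogenesis was triggered with ookinete medium (0.1 μM xanthurenic acid) plus Cy3-anti-Pfs25, and exflagellation was imaged by brightfield after cooling to 4°C then 28°C. Females were imaged by Pfs25 fluorescence 24 h later at 28°C.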

In data set [2] the test system is P. falciparum male gametocytes. The experiment in a line: P. falciparum Dual Gamete Formation Assay (PfDGFA), male readout (exflagellation). Type of data set: cell-based, Plasmodium falciparum NF54. Conditions: for Selectivity Ratio M: HepG2 Tox50 versus male IC50; for Average inhibition male (%) / % inhibition male (individual replicates) R1 / % inhibition male (individual replicates) R3 / % inhibition male (individual replicates) R4: 24h preincubation with gametocytes; for Average inhibition male (%): average of replicates; for % inhibition male (individual replicates) R1: replicate R1; for % inhibition male (individual replicates) R3: replicate R3; for % inhibition male (individual replicates) R4: replicate R4; for IC50: PfDGFA, 24 h incubation with gametocytes before induction, exflagellation readout, read-out: Male IC50; for HitlevelM: number of replicates with >50% inhibition in the male readout. A digest of the protocol:
as §1

Structures are written as SMILES.

Regarding `Nc1nc(N)c2c(ccc3c2ccn3Cc2ccc(-c3ccccc3)cc2)n1` [TCMDC-137813], the Tox50 with HepG2 cells was 0.46 µM. Further, in data set [1], the “Selectivity ratio F” value was determined as 0.44 and the IC50 – broadly, the concentration that inhibits the measured activity by half – worked out at 1.03 µM. Further, in data set [1] (PfDGFA at 2µM), the “Average inhibition female (%)” value is 90.5%, the “% inhibition female (individual replicates) R1” value is listed as 93.6%, the “% inhibition female (individual replicates) R3” value was 92.9% and the “% inhibition female (individual replicates) R4” value is recorded as 90.8%. This compound had a HitlevelF in data set [1] (2µM) of 4. Besides, in data set [2], the “Selectivity Ratio M” value is recorded as 0.97 and the IC50 came out at 0.47 µM. In addition, in data set [2] (PfDGFA at 2µM), the “Average inhibition male (%)” value came out at 70.1%, the “% inhibition male (individual replicates) R1” value was 91.2%, the “% inhibition male (individual replicates) R3” value came out at 64.2% and the “% inhibition male (individual replicates) R4” value amounted to 76.3%. The HitlevelM in data set [2] (2µM) is reported as 3.
As to `C#CCCOc1ccc2ccccc2c1CNCCCCCCNCc1c(OCCC#C)ccc2ccccc12` [TCMDC-137832], the Tox50 with HepG2 cells amounted to 3.94 µM. Moreover, in data set [1], the “Selectivity ratio F” value was determined as 1.37 and the IC50 turned out to be 2.88 µM. Also, in data set [1] (PfDGFA at 2µM), the “Average inhibition female (%)” value was determined as 22.9%, the “% inhibition female (individual replicates) R1” value was 24.2%, the “% inhibition female (individual replicates) R3” value is given as 11.7% and the “% inhibition female (individual replicates) R4” value came to 20.0%. The compound also yielded a HitlevelF in data set [1] (2µM) of 0. In addition, in data set [2], the “Selectivity Ratio M” value came out at 2.13 and the IC50 was 1.85 µM. In addition, in data set [2] (PfDGFA at 2µM), the “Average inhibition male (%)” value is 78.9%, the “% inhibition male (individual replicates) R1” value is 82.1%, the “% inhibition male (individual replicates) R3” value is 58.7% and the “% inhibition male (individual replicates) R4” value worked out at 86.2%. This compound showed a HitlevelM in data set [2] (2µM) of 4.
Turning to `CS(=O)(=O)O.FC(F)(F)COc1c(CNCCCCCCNCc2ccc3ccccc3c2OCC(F)(F)F)ccc2ccccc12` [TCMDC-137833], the Tox50 in the data set on HepG2 cells came out at 3.32 µM. Further, in data set [1], the “Selectivity ratio F” value is listed as 0.51 and the IC50 is 6.57 µM. Also, in data set [1] (PfDGFA at 2µM), the “Average inhibition female (%)” value is on record as 29.5%, the “% inhibition female (individual replicates) R1” value amounted to 27.4%, the “% inhibition female (individual replicates) R3” value stood at 10.4% and the “% inhibition female (individual replicates) R4” value came out at 40.2%. Besides, the HitlevelF in data set [1] (2µM) stood at 0. Moreover, in data set [2], the “Selectivity Ratio M” value amounted to 1.9 and the IC50 stood at 1.75 µM. In addition, in data set [2] (PfDGFA at 2µM), the “Average inhibition male (%)” value was found to be 69.2%, the “% inhibition male (individual replicates) R1” value amounted to 70.5%, the “% inhibition male (individual replicates) R3” value worked out at 47.4% and the “% inhibition male (individual replicates) R4” value was 77.6%. This compound also showed a HitlevelM in data set [2] (2µM) of 3.
As to `CS(=O)(=O)O.c1ccc2c(CNCCCCCCNCc3c(OCC4CC4)ccc4ccccc34)c(OCC3CC3)ccc2c1` [TCMDC-137839], the Tox50 in the data set with HepG2 cells was determined as 3.2 µM. In addition, in data set [1] (2µM), the “Average inhibition female (%)” value stood at 78.7%, the “% inhibition female (individual replicates) R1” value is listed as 59.7%, the “% inhibition female (individual replicates) R3” value came to 91.2% and the “% inhibition female (individual replicates) R4” value amounted to 88.3%. Further, in data set [1], the “Selectivity ratio F” value was found to be 1.36 and the IC50 came out at 2.36 µM. For the same compound, in data set [2] (2µM), the “Average inhibition male (%)” value is 95.2%, the “% inhibition male (individual replicates) R1” value turned out to be 96.4%, the “% inhibition male (individual replicates) R3” value came to 98.9% and the “% inhibition male (individual replicates) R4” value is listed as 103.0%. Moreover, in data set [2], the “Selectivity Ratio M” value was found to be 2.29 and the IC50 worked out at 1.4 µM.
